We go through one molecule from article PMC10174618, “Monoterpenoid aryl hydrocarbon receptor allosteric antagonists protect against ultraviolet skin damage in female mice” (Nature Communications, 2023).

Assay in all cases: biochemical
What all share (set-up): KINOMEscan scanMAX active site-directed competition binding assay, percent of control, 468 kinases
Holding throughout (settings): competition binding, percent of control

Assay [1] concerns the target T1, ABL1(Y253F)-phosphorylated (Homo sapiens, UniProt P00519, Y253F).
T1 construct: phosphorylated
Here is the method: (§1) The KINOMEscan^TM screening platform (scanMAX assay) employs a proprietary active site-directed competition binding assay that quantitatively measures the interactions between test compounds (here 100 μM S-carvone) and 468 human protein kinases. The assay was performed at Eurofins DiscoverX Corp. (Fremont, CA, USA). Blocking protein kinase C (PKC) activity was reported to inhibit the transcription of CYP1A1 but to exert no effect on the nuclear translocation of AhR[26], which was also the case here with carvones. Therefore, we tested whether carvones inhibit PKC catalytic activity. […] We also evaluated the interaction between 100 μM S-carvone and 468 human protein kinases, employing KINOMEscan^TM (scanMAX assay), a proprietary active site-directed competition binding assay. The minimal inhibitory threshold used by the screening platform KINOMEscan^TM is 35% of the control kinase activity. Among 468 kinases tested, 467 were above the 35% cutoff. Tyrosine kinase 2 TK2 (JH2 domain pseudokinase) activity was inhibited to 27% of the control activity, but this kinase is not relevant to the regulation of transcription activity (Fig. 5B; Figure S9). Overall, we excluded the possibility that the effects of carvones on AhR signaling are caused indirectly by the inhibition of the human kinome, particularly PKC.

The target of the next assay is AKT3 (Homo sapiens, UniProt Q9Y243). Here is the method:
as §1

A further assay has as its target ALK (Homo sapiens, UniProt Q9UM73). As for the experimental part:
as §1

For another assay, the target named is T2, ARK5 (Homo sapiens, UniProt O60285).
T2 construct: gene NUAK1
As for the experimental part:
as §1

The target of another assay is CHEK1 (Homo sapiens, UniProt O14757). Here is the method: as §1
A further assay addresses ERBB4 (Homo sapiens, UniProt Q15303). As for the experimental part:
as §1

The target of the next assay is GRK2 (Homo sapiens, UniProt P25098). Here is the method:
as §1

The next assay addresses GRK4 (Homo sapiens, UniProt P32298). As for the experimental part: as §1
Another assay deals with T3, JNK1 (Homo sapiens, UniProt P45983).
T3 construct: gene MAPK8
As for the experimental part: as §1

Another assay deals with KIT(L576P) (Homo sapiens, UniProt P10721, L576P). Here is the method:
as §1

The target in another assay is T4, MEK1 (Homo sapiens, UniProt Q02750).
T4 construct: gene MAP2K1
As for the experimental part:
as §1

In the next assay the target is NEK1 (Homo sapiens, UniProt Q96PY6). Here is the method: as §1
Another assay addresses NEK4 (Homo sapiens, UniProt P51957). As for the experimental part:
as §1

The next assay deals with T5, OSR1 (Homo sapiens, UniProt O95747).
T5 construct: gene OXSR1
As for the experimental part: as §1

The target of a further assay is PHKG1 (Homo sapiens, UniProt Q16816). Here is the method:
as §1

The target in another assay is PKMYT1 (Homo sapiens, UniProt Q99640). As for the experimental part: as §1
The target in the next assay is PRKX (Homo sapiens, UniProt P51817). As for the experimental part:
as §1

A further assay has as its target T6, SGK (Homo sapiens, UniProt O00141).
T6 construct: gene SGK1
Here is the method:
as §1

The target in the next assay is SRC (Homo sapiens, UniProt P12931). Here is the method: as §1
Another assay concerns the target SRPK2 (Homo sapiens, UniProt P78362). Here is the method:
as §1

The target in the next assay is T7, YANK1 (Homo sapiens, UniProt Q8WU08).
T7 construct: gene STK32A
Here is the method:
as §1

The next assay addresses T8, YSK4 (Homo sapiens, UniProt Q56UN5).
T8 construct: gene MAP3K19
As for the experimental part:
as §1

The structures appear in SMILES notation.

T3 sequence (P45983 whole entry): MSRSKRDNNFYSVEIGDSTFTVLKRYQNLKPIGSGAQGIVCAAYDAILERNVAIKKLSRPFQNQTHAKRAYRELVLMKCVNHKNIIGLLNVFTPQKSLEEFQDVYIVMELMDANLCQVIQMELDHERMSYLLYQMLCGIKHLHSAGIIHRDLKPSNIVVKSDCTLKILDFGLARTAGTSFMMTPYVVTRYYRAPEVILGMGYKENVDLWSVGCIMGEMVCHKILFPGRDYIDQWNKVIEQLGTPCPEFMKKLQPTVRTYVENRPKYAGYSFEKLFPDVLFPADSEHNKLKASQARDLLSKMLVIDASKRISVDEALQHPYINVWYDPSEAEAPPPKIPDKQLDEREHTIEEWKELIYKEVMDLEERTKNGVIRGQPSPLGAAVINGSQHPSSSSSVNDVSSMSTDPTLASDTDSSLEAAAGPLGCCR
Sequence of KIT(L576P) (P10721 whole entry L576P): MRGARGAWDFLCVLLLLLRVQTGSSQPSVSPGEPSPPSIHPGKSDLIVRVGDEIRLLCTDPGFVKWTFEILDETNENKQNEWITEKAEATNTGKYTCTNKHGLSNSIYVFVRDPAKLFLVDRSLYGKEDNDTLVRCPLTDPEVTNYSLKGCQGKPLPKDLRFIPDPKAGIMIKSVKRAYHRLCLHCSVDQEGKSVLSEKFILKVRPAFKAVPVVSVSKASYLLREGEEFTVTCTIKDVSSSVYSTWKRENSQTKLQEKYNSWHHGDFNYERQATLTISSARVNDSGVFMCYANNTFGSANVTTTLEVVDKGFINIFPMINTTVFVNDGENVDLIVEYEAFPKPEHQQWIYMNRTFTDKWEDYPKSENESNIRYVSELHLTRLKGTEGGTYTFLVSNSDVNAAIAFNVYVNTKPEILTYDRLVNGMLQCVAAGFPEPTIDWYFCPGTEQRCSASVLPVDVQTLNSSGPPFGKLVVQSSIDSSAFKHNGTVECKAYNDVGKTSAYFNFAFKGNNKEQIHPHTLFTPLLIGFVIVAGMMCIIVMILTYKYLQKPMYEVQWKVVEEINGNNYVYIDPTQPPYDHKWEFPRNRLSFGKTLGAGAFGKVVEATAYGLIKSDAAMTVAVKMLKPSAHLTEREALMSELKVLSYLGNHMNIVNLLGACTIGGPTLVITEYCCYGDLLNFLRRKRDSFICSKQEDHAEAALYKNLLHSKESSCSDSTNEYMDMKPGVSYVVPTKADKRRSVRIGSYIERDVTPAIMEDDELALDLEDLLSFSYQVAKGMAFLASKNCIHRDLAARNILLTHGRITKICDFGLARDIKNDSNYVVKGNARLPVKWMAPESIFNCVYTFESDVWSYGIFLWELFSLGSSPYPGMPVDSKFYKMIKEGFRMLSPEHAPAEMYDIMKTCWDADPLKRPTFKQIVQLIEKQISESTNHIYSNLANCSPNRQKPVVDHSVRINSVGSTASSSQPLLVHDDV
Sequence of ERBB4 (Q15303 whole entry): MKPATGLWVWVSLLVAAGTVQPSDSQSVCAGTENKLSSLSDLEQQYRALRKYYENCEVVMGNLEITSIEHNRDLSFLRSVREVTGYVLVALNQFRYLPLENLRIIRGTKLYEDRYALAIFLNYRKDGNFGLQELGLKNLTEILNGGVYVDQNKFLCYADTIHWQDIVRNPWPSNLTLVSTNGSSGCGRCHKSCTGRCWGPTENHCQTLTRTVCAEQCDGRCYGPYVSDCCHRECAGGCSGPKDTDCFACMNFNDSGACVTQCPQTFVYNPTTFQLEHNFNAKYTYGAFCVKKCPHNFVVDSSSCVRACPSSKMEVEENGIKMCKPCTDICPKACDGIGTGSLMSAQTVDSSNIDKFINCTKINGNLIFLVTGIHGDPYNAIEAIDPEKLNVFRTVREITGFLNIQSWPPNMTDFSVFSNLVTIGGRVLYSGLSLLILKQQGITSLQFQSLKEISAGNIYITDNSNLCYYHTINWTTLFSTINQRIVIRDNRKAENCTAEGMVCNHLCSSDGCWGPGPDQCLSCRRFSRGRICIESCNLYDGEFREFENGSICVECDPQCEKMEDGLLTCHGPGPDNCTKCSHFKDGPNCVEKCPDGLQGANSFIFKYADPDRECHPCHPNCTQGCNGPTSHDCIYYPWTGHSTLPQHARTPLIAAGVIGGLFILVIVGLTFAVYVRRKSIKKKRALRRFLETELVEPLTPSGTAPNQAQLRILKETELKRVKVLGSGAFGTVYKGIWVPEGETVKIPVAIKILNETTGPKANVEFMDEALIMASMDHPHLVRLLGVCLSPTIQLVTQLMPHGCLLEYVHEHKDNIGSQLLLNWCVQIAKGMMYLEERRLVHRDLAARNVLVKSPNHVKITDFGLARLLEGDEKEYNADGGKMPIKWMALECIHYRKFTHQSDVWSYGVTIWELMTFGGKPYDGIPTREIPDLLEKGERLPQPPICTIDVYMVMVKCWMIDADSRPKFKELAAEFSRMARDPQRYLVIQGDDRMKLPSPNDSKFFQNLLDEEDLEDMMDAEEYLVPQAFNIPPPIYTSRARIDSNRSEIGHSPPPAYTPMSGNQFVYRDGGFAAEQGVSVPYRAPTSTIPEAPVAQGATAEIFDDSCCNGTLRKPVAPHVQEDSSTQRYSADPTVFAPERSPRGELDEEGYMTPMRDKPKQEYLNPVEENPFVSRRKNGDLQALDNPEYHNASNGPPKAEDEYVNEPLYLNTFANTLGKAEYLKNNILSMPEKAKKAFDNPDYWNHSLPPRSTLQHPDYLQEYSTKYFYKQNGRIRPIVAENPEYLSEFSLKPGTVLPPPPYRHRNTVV
Sequence of PHKG1 (Q16816 whole entry): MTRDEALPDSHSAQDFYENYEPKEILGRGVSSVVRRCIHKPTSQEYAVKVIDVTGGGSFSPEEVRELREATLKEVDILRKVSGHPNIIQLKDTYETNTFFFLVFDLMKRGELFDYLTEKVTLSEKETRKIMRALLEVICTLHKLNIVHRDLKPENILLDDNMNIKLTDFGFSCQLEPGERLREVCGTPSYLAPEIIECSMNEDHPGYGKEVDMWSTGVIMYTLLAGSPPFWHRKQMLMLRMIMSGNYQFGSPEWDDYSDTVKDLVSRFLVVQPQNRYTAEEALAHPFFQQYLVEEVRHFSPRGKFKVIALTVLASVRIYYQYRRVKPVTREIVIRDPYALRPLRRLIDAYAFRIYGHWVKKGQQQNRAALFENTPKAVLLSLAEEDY
T5 sequence (O95747 whole entry): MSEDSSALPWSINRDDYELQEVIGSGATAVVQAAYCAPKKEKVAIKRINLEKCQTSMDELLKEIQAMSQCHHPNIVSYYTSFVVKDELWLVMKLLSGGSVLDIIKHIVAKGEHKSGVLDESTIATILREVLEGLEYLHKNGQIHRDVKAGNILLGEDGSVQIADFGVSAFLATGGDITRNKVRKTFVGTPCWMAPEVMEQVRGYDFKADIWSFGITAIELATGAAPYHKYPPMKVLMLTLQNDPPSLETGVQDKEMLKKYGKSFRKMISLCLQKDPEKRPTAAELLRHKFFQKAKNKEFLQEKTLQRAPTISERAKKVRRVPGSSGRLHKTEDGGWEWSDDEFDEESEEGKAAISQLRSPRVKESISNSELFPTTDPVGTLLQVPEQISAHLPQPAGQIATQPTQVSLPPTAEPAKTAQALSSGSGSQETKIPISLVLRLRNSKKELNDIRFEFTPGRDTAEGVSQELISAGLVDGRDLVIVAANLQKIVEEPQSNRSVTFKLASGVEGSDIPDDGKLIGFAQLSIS
Sequence of PRKX (P51817 whole entry): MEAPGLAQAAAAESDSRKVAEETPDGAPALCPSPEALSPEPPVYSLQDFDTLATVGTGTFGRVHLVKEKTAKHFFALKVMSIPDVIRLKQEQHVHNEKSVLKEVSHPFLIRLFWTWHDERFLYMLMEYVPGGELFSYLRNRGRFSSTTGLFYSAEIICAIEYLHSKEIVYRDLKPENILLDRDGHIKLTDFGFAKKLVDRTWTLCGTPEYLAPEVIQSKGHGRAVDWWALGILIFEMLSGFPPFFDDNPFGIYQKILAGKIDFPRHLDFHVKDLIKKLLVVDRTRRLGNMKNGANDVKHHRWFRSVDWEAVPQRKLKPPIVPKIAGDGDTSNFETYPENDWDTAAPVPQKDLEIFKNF
Sequence of CHEK1 (O14757 whole entry): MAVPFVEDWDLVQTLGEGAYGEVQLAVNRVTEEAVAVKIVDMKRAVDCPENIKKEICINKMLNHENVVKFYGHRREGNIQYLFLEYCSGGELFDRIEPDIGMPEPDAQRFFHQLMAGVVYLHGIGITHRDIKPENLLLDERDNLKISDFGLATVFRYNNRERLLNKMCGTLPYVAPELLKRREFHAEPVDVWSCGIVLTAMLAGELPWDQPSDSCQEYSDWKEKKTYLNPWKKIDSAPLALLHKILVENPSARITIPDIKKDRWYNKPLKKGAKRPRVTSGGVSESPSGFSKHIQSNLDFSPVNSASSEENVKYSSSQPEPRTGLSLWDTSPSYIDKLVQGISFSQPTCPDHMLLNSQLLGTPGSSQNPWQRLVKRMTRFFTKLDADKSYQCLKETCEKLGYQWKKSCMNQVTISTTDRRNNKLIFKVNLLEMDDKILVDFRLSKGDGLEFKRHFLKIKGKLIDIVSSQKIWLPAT
Sequence of GRK4 (P32298 whole entry): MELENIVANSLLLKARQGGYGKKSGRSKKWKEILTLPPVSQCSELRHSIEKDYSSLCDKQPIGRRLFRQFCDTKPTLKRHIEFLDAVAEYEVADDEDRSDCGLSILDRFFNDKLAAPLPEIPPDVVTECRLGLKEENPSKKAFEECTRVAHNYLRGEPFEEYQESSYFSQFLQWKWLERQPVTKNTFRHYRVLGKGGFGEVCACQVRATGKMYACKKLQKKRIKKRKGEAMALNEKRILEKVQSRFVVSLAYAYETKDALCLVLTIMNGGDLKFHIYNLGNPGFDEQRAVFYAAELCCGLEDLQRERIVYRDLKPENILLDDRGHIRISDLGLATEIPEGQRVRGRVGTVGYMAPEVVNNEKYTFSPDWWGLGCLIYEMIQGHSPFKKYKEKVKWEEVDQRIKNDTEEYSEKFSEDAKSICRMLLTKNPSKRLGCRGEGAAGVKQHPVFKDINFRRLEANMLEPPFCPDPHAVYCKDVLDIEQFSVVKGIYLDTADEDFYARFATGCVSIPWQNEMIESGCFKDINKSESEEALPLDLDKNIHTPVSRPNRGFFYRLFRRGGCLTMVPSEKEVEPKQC

For `C=C(C)[C@H]1CC=C(C)C(=O)C1` [S-carvone], the remaining binding at 100 µM amounted to 67% in assay [1]; 90% at AKT3; 73% on ALK; 100% on ARK5; 91% on CHEK1; 81% at ERBB4. Further, the remaining binding at 100 µM turned out to be 58% at GRK2; 66% at GRK4; 80% on JNK1; 71% on KIT(L576P); 71% at MEK1; 94% at NEK1. Further, the remaining binding at 100 µM on NEK4 stood at 97%; at OSR1 it was 78%; at PHKG1, 100%; on PKMYT1, 86%; at PRKX, 100%; at SGK, 70%. For the same molecule, the remaining binding at 100 µM at SRC amounted to 77%; on SRPK2, 99%; on YANK1, 78%; at YSK4 it was 61%.
